Laboratory results taken from patent US12569495B2, “Inhibitors of porcine reproductive and respiratory syndrome virus” (UNIVERSITY OF CONNECTICUT, priority 2020, dated 2026).

Legend:
[1] = test system: PRRSV strain VR-2332; test: PRRSV titration assay of culture media of infected PAMs; assay type: cell-based; conditions: 15 μM; for log reduction of viral titer: pre- and post-inoculation treatment; for inhibitory function in PRRSV infection assay compared with B7: qRT-PCR and titration (FIG. 7B, 7C)
Procedure: (§1) For PRRSV infection of PAM cells, PAMs were seeded one day prior to infection. […] Cells were inoculated with VR-2332, SDSU73, NADC30 or Lelystad PRRSV at MOI=0.1 for 1 h. The 24 h cell medium supernatant was stored at −80° C. until use.
For PRRSV titration assay, MARC145 cells were seeded in 48-well plates and grew to ˜80% density before inoculation. Viral supernatants were prepared by 10-fold serial dilution, and 100 μl of the dilutions was added per well in six replicates. Inocula were removed from cells after 2 h and replaced with 0.5 mL of DMEM supplemented with 2% FBS, 2 mM glutamine, 0.1 mM MEM non-essential amino acids, 50 U/mL penicillin, and 50 μg/mL streptomycin (Invitrogen). Cells were cultured at 37° C. for 6 days and any cytopathic effects were observed and recorded. The PRRSV titer was calculated using the Reed and Muench method and expressed as median tissue culture infectious dose (TCID50/mL). Reed and Muench, Am. J. Epidemiol. 27(3): 493-497 (1938).

[2] = molecular target: T1, protein-protein interactions (PPI) between CD163-SRCR5 domain and PRRSV GP2a protein (Sus scrofa, UniProt Q2VL90); test: BiFC assay between SRCR5-VN and GP2a-VC proteins; assay type: cell-based, porcine CD163; PRRSV; conditions: for inhibitory function in BiFC assay compared with B7: methyl and/or fluoro groups removed from the benzenesulfonamide moiety; for inhibition of CD163-SRCR5/GP2a PPI in the BiFC assay, B7 analogues: HEK293T cells, DMSO as Ctrl, concentration not given
T1 construct: The amplified cDNA fragments of SRCR2 or SRCR5 were subcloned into the pBiFC-VN155(I152L) vector; Myc tag (from vector backbone pMyc-CMV); expressed in transfected cells; host or cells: HEK293T
T1 sequence (Q2VL90 477-577): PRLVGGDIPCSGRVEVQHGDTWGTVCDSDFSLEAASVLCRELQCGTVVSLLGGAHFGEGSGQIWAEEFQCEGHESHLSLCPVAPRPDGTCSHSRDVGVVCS
Source text: The N-terminus and C-terminus of the truncated Venus-I152L were inserted into vector backbone pMyc-CMV and pCMV-HA, constituting commercial plasmids pBiFC-VN155(I152L) and pBiFC-VC155, respectively (Addgene, Watertown, MA, USA). See Kodama and Hu, Biotechniques 49:793-805 (2010). cDNA fragments for the scavenger receptor cysteine-rich domain 2 (SRCR2) and SRCR5 of porcine CD163 receptor, and for PRRSV glycoproteins GP2a and GP4 were amplified by RT-PCR. The amplified cDNA fragments of SRCR2 or SRCR5 were subcloned into the pBiFC-VN155(I152L) vector digested with EcoRI/BglII. For constructions of GP2a and GP4 fusion proteins, cDNA fragments encoding GP2a or GP4 were subcloned into the pBiFC-VC155 vector digested with EcoRI/BglII. All plasmid clones were verified by DNA Sanger sequencing.
HEK293T cells cultured in 12-well plates were transfected with appropriate plasmids for each BiFC assay using FuGENE® 6 (Promega, Madison, WI, USA). After 5 h, various concentrations of chemical compounds were added to the culture media. DMSO was used as the vehicle control. Fluorescence images of treated cells at 24 h after plasmid transfection were captured using an inverted Nikon fluorescence microscope. Fluorescence intensity of treated cells was measured by ImageJ.
Using the previously described BiFC vector based on the fragmented venus protein (VN-155[I152L], hereafter named VN) and (VC-155, hereafter named VC), fusion protein constructs were established between the porcine CD163 protein SRCR5 or SRCR2 domain and VN, and between the PRRSV minor glycoproteins (GP2a or GP4) and VC (FIG. 1A, 2). See Kodama et al., Biotechniques 49(5): 793-805 (2010). These plasmids were co-expressed in HEK293T cells to evaluate the PPIs between the SRCR5 domain and GP2a or GP4.
The BiFC assays was tested to determine whether it could identify small molecules with potential to block the protein-protein interactions between CD163 and PRRSV. A customized virtual screen of a library of commercially available small molecules was performed with the AtomNet® model at a region centered around R561 (FIG. 3) based on the available 3-D protein structure of porcine CD163-SRCR5 domain, and 74 compounds predicted to target this potential binding site were procured. Ma et al., J. Virol. 91(3): e01897-16 (2017). These compounds were tested using the BiFC assay, to evaluate their ability to inhibit the PPI between GP2a and SRCR5. Plasmids were co-transfected in HEK293T cells, 4 h later, compounds were individually administered to cells at 5 μM. Twenty-four hours later, images were taken under a fluorescence microscope and the fluorescence quantified. […] Until these studies, there has been no known biological activity reported for compound B7.

[3] = test system: PRRSV strain VR-2332; test: qRT-PCR for PRRSV RNA in infected PAMs; assay type: cell-based; conditions: 15 μM; VR-2332; 24 h
Procedure: Total RNA was extracted from PAMs infected with PRRSV using RNeasy Mini Kit (Qiagen, Germantown, MD) according to the manufacturer's instruction. RNA concentrations were measured using a Nanodrop spectrophotometer (Thermo Fisher Scientific). GAPDH was used as a housekeeping gene for gene expression normalization. Data were processed with the software associated with ABI 7500.
as §1

| Structure (SMILES) | log reduction of viral titer ([1]; 24 h) | inhibitory function in PRRSV infection assay compared with B7 [1] | inhibitory function in BiFC assay compared with B7 [2] | inhibition of CD163-SRCR5/GP2a PPI in the BiFC assay, B7 analogues [2] | PRRSV RNA level in treated PAMs (qRT-PCR), B7 analogues [3] | inhibition of PRRSV infection of PAMs (titration of culture media), B7 analogues ([1]; 24 h) |
| --- | --- | --- | --- | --- | --- | --- |
| O=S(=O)(Nc1nc2ccccc2nc1Nc1ccc(Cl)c(S(=O)(=O)N2CCOCC2)c1)c1ccccc1 [Compound B7-A1, N-[3-(4-chloro-3-morpholin-4-ylsulfonylanilino)quinoxalin-2-yl] benzenesulfonamide] | 2.2 log | weakened the compound's inhibitory function | weakened the compound's inhibitory function |  |  |  |
| Cc1ccccc1S(=O)(=O)Nc1nc2ccccc2nc1Nc1ccc(S(=O)(=O)N2CCOCC2)cc1 [Compound B7-A2, 2-methyl-N-[3-(4-morpholin-4-ylsulfonylanilino)quinoxalin-2-yl] benzenesulfonamide] | 2.4 log | weakened the compound's inhibitory function | weakened the compound's inhibitory function | does not eliminate these compounds' ability to inhibit |  |  |
| O=S(=O)(Nc1nc2ccccc2nc1Nc1cccc(S(=O)(=O)N2CCOCC2)c1)c1ccccc1 [Compound B7-A3, N-[3-(3-morpholin-4-ylsulfonylanilino)quinoxalin-2-yl] benzenesulfonamide] | 1.2 log | weakened the compound's inhibitory function | weakened the compound's inhibitory function |  |  |  |
| Cc1ccc(S(=O)(=O)Nc2nc3ccccc3nc2Nc2cccc(S(=O)(=O)N3CCCCC3)c2)cc1 [Compound B7-A4, 4-methyl-N-[3-(3-piperidin-1-ylsulfonylanilino)quinoxalin-2-yl] benzenesulfonamide] | 2.8 log |  |  | does not eliminate these compounds' ability to inhibit |  |  |
| Cc1ccc(S(=O)(=O)Nc2nc3ccccc3nc2N2CCOCC2)cc1 [Compound B7-A5, 4-methyl-N-(3-morpholinoquinoxalin-2-yl)benzenesulfonamide] |  |  |  | completely blocked their ability to inhibit | failed to inhibit PRRSV RNA level |  |
| Cc1ccccc1S(=O)(=O)Nc1nc2ccccc2nc1N1CCOCC1 [Compound B7-A6, 2-methyl-N-(3-morpholin-4-ylquinoxalin-2-yl) benzenesulfonamide] |  |  |  | completely blocked their ability to inhibit |  |  |
| Nc1cccc(S(=O)(=O)N2CCOCC2)c1 [Compound B7-A7, 3-(morpholinosulfonyl)aniline] |  |  |  |  |  | none of these 2 compounds inhibited PRRSV infection of PAMs |
